Source: patent publication US20250205221A1, “MUSCLE RELAXANT” (priority 2022, published 2025)

Key:
[1] = tested on: twitch response of the gastrocnemius muscle; assay: Evaluation of neuromuscular blocking effect (time to complete recovery of twitch response); assay type: in vivo, Male Sprague Dawley rats; conditions: for time until the muscle contraction (twitch response) was completely recovered: rats under isoflurane, dose inducing 95-99.9% neuromuscular block (ED95-99.9) via right jugular vein, sciatic nerve stimulation 0.1 Hz; for duration of action relative to succinylcholine: rats, doses inducing 95-99.9% neuromuscular block
Procedure: Male Sprague Dawley rats (about 300 g body weight) were used in the experiment. Anesthesia was first induced by 4 to 5% isoflurane inhalation and then maintained by 2 to 3% isoflurane inhalation. A warming system was used to keep the body temperature at 36 to 37° C. Lidocaine was infiltrated into the incision site. Tracheostomy was performed and a 16G catheter was inserted to secure the airway. The animals were ventilated by isoflurane and oxygen inhalation using a rodent ventilator at a tidal volume of 10 mL/kg and a respiratory rate of 70/min. A […] catheter was indwelled in the right jugular vein for drug administration. A small slide electrode was attached to the sciatic nerve, and supramaximal stimulation was applied at a frequency of 0.1 Hz and a pulse width of 0.2 ms using an electrostimulator. Using a force transducer, the twitch response of the gastrocnemius muscle was captured, amplified, and recorded. After the amplitude of the twitch response stabilized, a dose of succinylcholine or the JH-cpd series (JH013, JH014) inducing 95-99.9% neuromuscular block was administered, and the time until the muscle contraction (twitch response) was completely recovered was measured.

[2] = reported in Non-Patent Document 1; cited from earlier work

Row | Structure (SMILES) | time until the muscle contraction (twitch response) was completely recovered [1] [min] | duration of action relative to succinylcholine [1] | duration of action at clinical doses [2]
1 | COc1ccc(CC2c3cc(OC)c(OC)cc3CC[N+]2(C)CCCOC(=O)/C=C/C(=O)OCC[N+](C)(C)C)cc1OC (stereo not drawn) [JH013] | 5.5 | approximately half | 
2 | COc1ccc(CC2c3cc(OC)c(OC)cc3CC[N+]2(C)CCOC(=O)/C=C/C(=O)OCC[N+](C)(C)C)cc1OC (stereo not drawn) [JH014] | 7.5 | approximately two-thirds | 
3 | C[N+](C)(C)CCOC(=O)CCC(=O)OCC[N+](C)(C)C [succinylcholine, reference compound] | 11 |  | approximately 10 minutes
